Measured values reported in patent publication US4371521A, “Pharmaceutical composition for retarding excessive platelet aggregation” (priority 1973, dated 1983).
Read-outs that look alike come from different tables or passages of the source.

Columns and labels:
[1] = Pharmacological results of the single components; conditions: in the absence of the other component
[2] = system: creatine-phosphokinase; conditions: various buffers and pHs, cited from earlier work
[3] = Acute toxicity (LD50) in male albino mice; assay type: in vivo; conditions: mouse, in vivo, Tainter and Miller, ± standard deviation
[4] = system: male albino mice; test: Acute toxicity (LD50) in male albino mice; assay type: in vivo; conditions: Tainter and Miller, ± standard deviation

| Compound | pharmacological results of the component alone [1] | Rmax [2] | Km ([2]; read-out: Michaelis constant for creatine-phosphate) [µM] | LD50 [3] [mg/kg] | LD50 [4] [mg/kg] | Km ([2]; read-out: Michaelis constant for ADP) [µM] |
| --- | --- | --- | --- | --- | --- | --- |
| CN(CC(=O)O)C(=N)NP(=O)(O)O [CP, creatine-phosphate] | Neither the substrate (CP) alone (i.e. in the absence of the administration of the enzyme which brings about its conversion) nor the enzyme (CPK) alone gives the pharmacological results | 1.1 μmols/minute/μg of protein | 5000 | 3500 ± 120 |  |  |
| CPK: enzyme found in striated and cardiac muscle and cerebral tissue; protein molecule of molecular weight 8.1×10^4; crystalline form from rabbit skeletal muscle | Neither the substrate (CP) alone (i.e. in the absence of the administration of the enzyme which brings about its conversion) nor the enzyme (CPK) alone gives the pharmacological results |  |  |  | > 100 |  |
| Nc1ncnc2c1ncn2[C@@H]1O[C@H](COP(=O)(O)OP(=O)(O)O)[C@@H](O)[C@H]1O [ADP, adenosine-diphosphate, reference compound] |  | 1.7 μmols/minute/μg of protein |  |  |  | 800 to 1000 |
